Earlier results, collected in patent US11590090B2, “Acetaminophen formulation with protection against toxic effects of overdose” (Anzen Pharmaceuticals, LLC, priority 2019, dated 2023).

Tested on: cytochrome P450 mixed-function oxygenase system
Conditions: upon ingestion

## CC(=O)Nc1ccc(O)cc1 [acetaminophen]
  Fraction metabolized in the liver by cytochrome P450 to NAPQI: about 5%
